Experiments:
human BJ fibroblasts = assay: Temporal target and pluripotency gene expression (qPCR) after retroviral vector, CPP or TLR3 agonist treatment; type: cell-based
Description: In an effort to understand and overcome this failure, we examined the temporal sequence of target gene expression in response to a retroviral construct (pMX-Sox2) versus the corresponding CPP(CPP-SOX2). We focused on validated downstream targets such as Jarid2, Zic2, and bMyb for Sox2-activated genes, as well as, downstream genes known to function in nuclear reprogramming, i.e. Nanog, Sox2 and Oct4. Human fibroblasts were synchronized by serum starvation and then subjected to either a single infection with pMX-Sox2 or daily treatments of CPP-SOX2, and gene expression was assayed over 6 days.
Viral preparation and infection HEK293FT cells were plated at 6×10^6 cells per T225 flask and incubated overnight. Cells were transfected with 10 μg of VSV-G (envelope protein), 15 μg of pUMVC (packaging plasmid) and 10 μg of gene of interest (Sox2 or Oct4) with Lipofectamine. 48 hours after transfection, the supernatant of transfectant was collected and filtered through a 0.45 μm filter. Following spinning at 17,100 rpm for 2 hr 20 min, the viral pellet was resuspended to make 100× stock solutions. Human fibroblasts were seeded at 5×10^4 cells per well of a 6-well dish a day before transduction. The medium was replaced with virus-containing supernatant supplemented with 8 μg/ml polybrene, and incubated for 24 hr.
Treatments At 60-70% confluency, BJ fibroblast cells were serum-starved using 1% serum to induce G1 cell cycle arrest. The synchronized BJ fibroblasts were then subjected to either a single infection with retroviral constructs or daily treatments with 200 nM CPPs (CPP-SOX2 or CPP-OCT4). Poly I:C (300 ng/ml) was added to the cells simultaneously with the CPPs. For experiments involving peptide inhibitors, cells were pretreated for 6 hrs at 40 uM with either MyD88 inhibitory peptide (Pepinh-MyD) or TRIF inhibitory peptide (Pepinh-TRIF) followed by CPP treatments.
Gene Expression and Microarray Analyses RNA was isolated with the RNeasy kit. First-strand cDNA was primed with oligo(dT) primers and qPCR was performed with primer sets from Applied Biosystems. […]

HDAC = HDAC expression (cDNA profiling, Western); type: cell-based, human
Description: Histone acetylation status influences the folding and functional state of the chromatin and modulates the accessibility of DNA to the transcriptional machinery for gene expression. Histone de-acetylation is generally associated with a closed chromatin state, and inhibitors of histone de-acetylase (HDAC) such as valproic acid are employed to enhance nuclear reprogramming. […] The downregulation of HDAC1 expression by poly I:C was confirmed by Western analysis (FIG. 17).
Gene Expression and Microarray Analyses RNA was isolated with the RNeasy kit. First-strand cDNA was primed with oligo(dT) primers and qPCR was performed with primer sets from Applied Biosystems. RNA probes were prepared and hybridized to Illumina HumanHT-12 v4 Expression BeadChip microarrays.
Western Blotting Proteins were extracted from BJ fibroblasts by solubilizing the cells in RIPA buffer containing 1× protease inhibitor cocktail. 25 μg of total protein was loaded and resolved on SDSpolyacrylamide gels, transferred to PVDF membranes and probed with the following primary antibodies: anti-HP1α and anti-HDAC (Cell Signaling), and β-actin (Sigma, A5441). Immunoblots were developed with enhanced chemiluminescence reagents (Amersham).

[1] = test system: innate immune response genes (TLR3, NF-κB, IFN-β, Stat1, Stat2); assay: Expression of innate immunity related genes; type: cell-based, human
Description: To gain more insight into the mechanisms by which a retroviral particle could accelerate nuclear reprogramming, we substituted a non-integrating mutant of pMX-GFP by introducing a frameshift mutation near the poi coding region of the retrovirus. This mutant can enter the cell, direct synthesis of intact virus particles that retain reverse transcriptase activity, but cannot integrate newly synthesized viral DNA into the host genome. […] Accordingly, integration of foreign DNA into the host genome is not required for the difference in gene expression between the CPPs and their corresponding viral vectors. Viral infection activates innate immunity, by virtue of interaction with Toll-like receptors (TLRs). The TLRs recognize pathogen-associated molecular patterns (PAMPs) associated with viral protein, lipopolysaccharides, DNA or RNA. We hypothesized that activation of innate immunity through TLRs may be involved in the difference in gene expression. Indeed, we observed that our retroviral vectors (but not the CPPs) activated inflammatory (innate immune response) genes, including the toll-like receptor 3 (TLR3), NF-κB, IFN-β, Stat1 and Stat2 (FIG. 11).
Treatments At 60-70% confluency, BJ fibroblast cells were serum-starved using 1% serum to induce G1 cell cycle arrest. […]

Q: Which results are given for “Polyinosinicpolycytidylic acid [Poly I:C]”?
A: target and pluripotency gene expression (human BJ fibroblasts; agent alone, CPP 200 nM daily or single infection on Day 0, assayed over 6 days): unaffected; temporal expression of the downstream genes induced by CPP-OCT4 (human BJ fibroblasts; combined with CPP-OCT4 200 nM daily): accelerated; expression of the downstream genes induced by CPP-SOX2 (human BJ fibroblasts; combined with CPP-SOX2 200 nM daily, poly I:C 300 ng/ml): accelerated; expression of a suite of HDAC genes (HDAC; CPP treated human fibroblasts): downregulated; HDAC 1 protein expression (immunoblot) (HDAC; day 2 to day 6): early (day 2) and sustained (to day 6) inhibition; expression of NF-κB and TLR3 ([1]; BJ fibroblasts): sustained increase; expression of inflammatory (innate immune response) genes ([1]; human fibroblasts): induces the expression of genes involved in innate immunity

— US20130202649A1, “ACTIVATION OF INNATE IMMUNITY FOR NUCLEAR REPROGRAMMING OF SOMATIC CELLS” (The Board of Trustees of the Leland Stanford Junior …, priority 2012, published 2013)
